Results reported in PubChem BioAssay (NCI).
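Each compound was tested at five concentrations against cells in 96-well plates for 48 hours. Here, GI50 denotes the concentration required for 50% inhibition of growth. TGI is the concentration that stops growth completely.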

How the values were obtained:
Experiment in all cases: inhibition of tumour cell growth, NCI panel, 48 h
DU-145 prostate = tested on: DU-145 prostate
HT29 colon = tested on: HT29 colon
K-562 leukemia = tested on: K-562 leukemia
KM12 colon = tested on: KM12 colon
MDA-N = tested on: MDA-N
NCI-H226 lung = tested on: NCI-H226 lung
NCI-H522 lung = tested on: NCI-H522 lung
SNB-75 CNS = tested on: SNB-75 CNS
SF-268 CNS = tested on: SF-268 CNS

Row | Structure (SMILES) | TGI (DU-145 prostate) | TGI (HT29 colon) | TGI (K-562 leukemia) | TGI (KM12 colon) | TGI (MDA-N) | TGI (NCI-H226 lung) | TGI (NCI-H522 lung) | TGI (SNB-75 CNS) | TGI (SF-268 CNS) | GI50 (DU-145 prostate) | GI50 (HT29 colon) | GI50 (K-562 leukemia) | GI50 (KM12 colon) | GI50 (NCI-H226 lung) | GI50 (NCI-H522 lung) | GI50 (SF-268 CNS) | GI50 (SNB-75 CNS)
1 | CCC1(O)CC(CCN(Cc2ccccc2)C(=O)OCc2ccccc2)C(OCc2ccccc2)C1O (stereo not given) | 36.3 µM | 31 µM | 19.5 µM | 27.3 µM | 98.8 µM | 25.3 µM | 23.5 µM | 25.7 µM |  |  |  |  |  |  |  |  | 
2 | CC(=O)n1[nH]c(=O)n(-c2ccc(Cl)cc2)c1=O | > 100 µM | > 100 µM | > 100 µM | > 100 µM | > 100 µM | > 100 µM | > 100 µM |  | > 100 µM |  |  |  |  |  |  |  | 
3 | COC1/C=C/C(C)C(O)CC(O)/C=C/C(C)C(C(C)C(OC)C(C)CCC(=O)C(C)C(C/C=C/N(C)C=O)OC)OC(=O)/C=C/C=C(\C)CC(OC)CC2=CC(=O)O[C@@H](C(C)C(OC)C1)[C@H]2O (stereo not given in full) | 4.09 µM | 0.741 µM |  | 1.15 µM | 0.136 µM |  | 0.093 µM | 0.00586 µM | 0.137 µM |  |  |  |  |  |  |  | 
4 | O=C1NC(O)c2cc3ccccc3cc2O1 (stereo not given) | > 100 µM | > 100 µM | > 100 µM | > 100 µM |  | > 100 µM | > 100 µM | > 100 µM | > 100 µM |  |  |  |  |  |  |  | 
5 | O=C1c2cc3c(cc2-c2c1c1cc(F)c(F)cc1c(=O)n2CCCn1ccnc1)OCO3 | > 100 µM | > 100 µM | > 100 µM | 14.7 µM |  | 0.115 µM | 0.432 µM | 0.11 µM | > 100 µM | < 0.01 µM | 0.0189 µM | 0.0441 µM | 0.0469 µM | 0.0248 µM | 0.0124 µM | < 0.01 µM | < 0.01 µM
6 | CC1=C(C)C(=O)C(C2=CC(=O)c3ccccc3C2=O)=C(C2=CC(=O)c3ccccc3C2=O)C1=O | 12.5 µM | 28.7 µM |  | 28.9 µM |  | 49.5 µM | 17.4 µM | 31.5 µM | > 55.1 µM |  |  |  |  |  |  |  | 
7 | O=C(O)CSC(CC(=O)c1ccc(Cl)cc1)c1ccc(Cl)cc1 (stereo not given) | > 100 µM | > 100 µM | > 100 µM | 27.6 µM | > 100 µM |  | 45.3 µM | > 100 µM | 79 µM |  |  |  |  |  |  |  | 
8 | CSC(SC)=C(C(=O)c1ccc(Cl)cc1)n1c(=O)sc2cc(Br)ccc21 | > 100 µM | > 100 µM | > 100 µM | > 100 µM | > 100 µM | > 100 µM | > 100 µM |  | > 100 µM |  |  |  |  |  |  |  | 
